d = 2'-deoxy (DNA); r = 2'-OH (RNA)
Columns and labels:
[1] = system: thymidylate synthase (TS) protein; assay: Immunoblot analysis of TS protein (free and ITC-bound), Odyssey quantitation; format: cell-based, human; settings: RKO cells, 48 hr
GC3/TK− cells = assay: Cell proliferation (WST-1) in thymidine kinase-deficient GC3/TK− cells; format: cell-based, human; settings: 6 hr transfection, additional 5 days
Procedure: FIGS. 2A-B illustrate the effect of TK knockdown on the cytotoxicity of the FdU-modified ssiRNA. (A) RKO cells were transfected with 1 nM TK siRNA (lanes 3 and 4) or Mis-dU/dA (lane 5). After 6 hr, the medium was replaced with fresh medium. On the following day, cells were transfected with TS6-FdU/dA ssiRNA (1 nM) for 6 hr (lanes 2, 4, and 5) after which time, cells were harvested for immunoblot analysis. RKO cells were treated with 5-fluorouracil (5 nM) for 6 hr before harvesting (lane 6). (B) GC3/TK− cells were transfected with various concentrations of TS6-dU/dA or TS6-FdU/dA ssiRNA. After 6 hr, the medium was replaced and after an additional 5 days, cell proliferation was determined with the WST-1 assay;
The human colon cancer RKO cell line, originally obtained from ATCC, has been previously well-characterized and was maintained in RPMI-1640 (Invitrogen; Carlsbad, Calif.) with 10% (v/v) dialyzed fetal bovine serum at 37° C. in a humidified incubator with 5% CO2 (Reference 11). The thymidine kinase-deficient GC3/TK− cells were a gift from Dr. Janet Houghton (Reference 18). Cells were routinely authenticated by morphology and growth curve analysis. […]
RKO cells were plated in 96-well plates at a density of 800 cells/well. […] Cell proliferation/viability was quantified by the WST-1 assay (Roche; Indianapolis, Ind.).

With “TS6-dU/dA: unmodified TS-targeted ssiRNA, 5 dU on 3′-end of sense strand, 5 dA on 3′-end of antisense strand; SEQ ID NO: 3 and 4 (sense GGAUAUUGUCAGUCUUUAGGUUUUU; antisense CCUAAAGACUGACAAUAUCCAAAAA; sense: sugars from the 5' end r20 d5, backbone and T or U not given here; antisense: sugars from the 5' end r20 d5, backbone not given here)” the “suppression of expression of TS protein” value ([1]; 1 nM) was roughly 80%, the “Free TS (%)” value ([1]; ssiRNA 1 nM, normalized to free TS protein in mock-transfected cells (LF2000) set to 100%, mean ± S.D., 6 experiments) was 22.6 ± 7.5% and the IC50 (GC3/TK− cells) was 0.0514 ± 0.0278 µM.
